One experiment concerns the target T1, NAT10 (Homo sapiens, UniProt Q9H0A0).
T1 construct: depletion of total NAT10 protein in SiHa (human) and U14 (murine) CCa cell lines; endogenous in cells; host or cells: SiHa (human cervical cancer cell line)
T1 sequence (Q9H0A0 1-1025): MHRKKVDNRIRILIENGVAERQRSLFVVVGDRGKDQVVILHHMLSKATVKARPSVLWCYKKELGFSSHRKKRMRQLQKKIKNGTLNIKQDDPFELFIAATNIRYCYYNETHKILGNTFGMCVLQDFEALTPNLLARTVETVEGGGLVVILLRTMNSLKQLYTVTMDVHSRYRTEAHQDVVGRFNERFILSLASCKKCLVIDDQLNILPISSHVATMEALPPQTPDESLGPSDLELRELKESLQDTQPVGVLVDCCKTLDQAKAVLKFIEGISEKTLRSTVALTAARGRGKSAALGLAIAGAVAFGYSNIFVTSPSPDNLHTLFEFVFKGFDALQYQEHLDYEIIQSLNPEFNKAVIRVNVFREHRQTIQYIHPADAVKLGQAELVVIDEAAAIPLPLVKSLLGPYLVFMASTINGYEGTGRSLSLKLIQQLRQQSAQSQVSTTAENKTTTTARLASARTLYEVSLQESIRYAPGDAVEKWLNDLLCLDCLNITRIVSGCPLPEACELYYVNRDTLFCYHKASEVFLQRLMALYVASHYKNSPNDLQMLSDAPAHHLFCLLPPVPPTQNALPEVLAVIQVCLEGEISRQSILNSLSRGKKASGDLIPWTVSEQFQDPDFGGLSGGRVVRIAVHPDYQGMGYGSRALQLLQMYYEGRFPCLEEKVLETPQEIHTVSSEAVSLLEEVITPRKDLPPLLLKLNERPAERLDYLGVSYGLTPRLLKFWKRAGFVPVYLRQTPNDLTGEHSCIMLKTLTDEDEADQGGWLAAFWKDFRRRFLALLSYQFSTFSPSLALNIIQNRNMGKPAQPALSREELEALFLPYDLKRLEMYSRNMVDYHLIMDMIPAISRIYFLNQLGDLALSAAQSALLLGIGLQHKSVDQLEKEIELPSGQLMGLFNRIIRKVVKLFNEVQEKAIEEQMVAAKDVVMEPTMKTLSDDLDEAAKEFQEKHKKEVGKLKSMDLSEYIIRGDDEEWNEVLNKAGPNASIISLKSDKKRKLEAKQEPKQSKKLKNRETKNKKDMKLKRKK
Briefly: NAT10 degradation in SiHa cells, Western blot. The conditions noted are these: SiHa cells; for effect of cotreatment on NP1192-mediated degradation of NAT10: inhibitor 200 nM for 12 h, then NP1192 for 36 h. The class given is cell-based. The method, then: The human CCa cell line SiHa and the normal epithelial foreskin fibroblast line HFF-1 were purchased from the Cell Bank of the Chinese Academy of Sciences. Additionally, murine cervical carcinoma cell line U14 (RRID:CVCL_9U56) was purchased from Boster Company. HFF-1 and U14 cells were cultured in Dulbecco’s modified Eagle’s medium (DMEM) (Gibco, USA) supplemented with 10% heat-inactivated fetal bovine serum (FBS; Gibco, USA), while SiHa cells were incubated in RPMI 1640 medium (Gibco, USA) in a humid atmosphere with 5% CO2 at 37 °C. For hypoxia exposure, the cells were incubated in a sealed culture tank containing 5% CO2 and 0.1% O2 (MGC, Japan) for 36 h.
RIPA lysis buffer (Beyotime, China) mixed with 1% protease inhibitor (Sigma, US) was added to the cells, and a sample of total protein was obtained and then loaded onto an 8% or 12% polyacrylamide gel. The gel was placed in a buffer solution, and an electric current was applied. The separated proteins were subsequently transferred from the gel onto a PVDF membrane. Next, the membrane was blocked with 5% milk for 1 h to prevent nonspecific antibody binding. The membranes were subsequently incubated with anti-NAT10 (1:1000, Abcam, USA), anti-PD-L1 (1:1000, Proteintech, China), anti-HIF-1α (1:1000, Abmart, China), and anti-β-tubulin (1:1000, Proteintech, China) primary antibodies for 12 h. Afterward, the membrane was sequentially washed with 1× TBST and incubated for 1 h with an antimouse secondary antibody (1:6000, Elabscience, China) or antirabbit secondary antibody (1:6000, Elabscience, China). The target proteins were detected via chemiluminescence with a ChemiDoc MP Imaging System (Bio-Rad, US).
A general note: Immunoblotting shows a protein as a band on a membrane.

Experiment [1] has as its system SiHa cells. Briefly: SiHa cell viability IC50 (CCK-8). The conditions noted are these: Homo sapiens; parental SiHa cells, 36 h; read-out: IC50, inhibition of SiHa cell viability. The class given is cell-based, human. As for the experimental part: NAT10^± SiHa cells and SiHa cells treated with DMSO, Remodelin or NP1192 for 36 h were seeded into the wells of a 96-well microplate at identical densities of 2000 or 3000 cells per well. After the cells adhered to the well surface, 110 μL of a 1:10 mixture of CCK-8 reagent (Meilunbio, China) and RPMI 1640 medium was added to each well. The microplate was then incubated for another 2 h in the incubator, and the mixture was replaced with an equal volume of medium. A microplate reader (BioTek, US) was used to measure the absorption at a wavelength of 450 nm.

Experiment [2] relates to Remodelin^Resist SiHa cells. Briefly: IC50 and resistance index in Remodelin-resistant SiHa cells (CCK-8). The experiment is classed as cell-based, human. The method, then:
We generated Remodelin-resistant (Remodelin^Resist SiHa) and NP1192-resistant (NP1192^Resist SiHa) SiHa CCa cell lines by applying a stepwise dose escalation strategy, as previously described in the literature. To quantitatively assess resistance, we calculated the resistance index for each subline following the established methodologies. Briefly, 3000 cells per well were seeded in 96-well plates and treated with increasing concentrations of Remodelin or NP1192 (0, 10, 50, 100, and 150 μM) for 24 h. Following treatment, 10 μL of CCK-8 reagent was added to each well and incubated for an additional 2 h. Absorbance at 490 nm was measured, and the IC50 values were calculated using GraphPad Prism 9.0. The RI was defined as the ratio of the IC50 in resistant cells to that in parental cells.

In experiment [3] the test system is SiHa cells. Briefly: Colony formation assay in SiHa cells. The class given is cell-based, human. To be noted: pretreated 20 μM 36 h, 2 weeks. As for the experimental part: NAT10^± SiHa cells and SiHa cells treated with DMSO, Remodelin or NP1192 for 36 h were seeded into the wells of a 6-well microplate at identical densities of 2000 or 3000 cells per well. The cells were then incubated in the incubator for at least 2 weeks to form colonies. After the incubation period, the cells were fixed with formalin and then stained with crystal violet. The colonies were then counted via a microscope. The number and size of the colonies in the experimental groups were compared.

The subject of experiment [4] is CD8+ TILs, M2 macrophages, MDSCs and Treg cells in U14 xenograft tumors. To be noted: Figure 7A.
Procedure: U14 cells (1 × 10^7 cells per mouse, approximately 100–150 μL of cell suspension) were implanted subcutaneously into the lateral lower dorsal surface of each mouse. The tumors were allowed to grow for 7 days, and the mice were then administered one of five treatments (group 1: U14 cells + DMSO; group 2: U14 cells + Remodelin; group 3: U14 cells + anti-PD-L1 antibody; group 4: U14 cells + NP1192; group 5: U14 cells + anti-PD-L1 antibody + NP1192). Each group of mice was assigned according to the principles of randomization and the blinding method. Tumors were measured every 2 days, and tumor volume was calculated via the following equation: volume = (width)^2 × length/2. Remodelin and NP1192 were injected into the peritumoral area every 2 days at a dose of 25 mg/kg, and the in vivo antimouse PD-L1 antibody (low endotoxin) was injected every 3 days at a dose of 2.5 mg/kg.
After the mice were euthanized, the tumor and peritumoral tissues were analyzed with an immunoflow kit (BioLegend, USA). The antibodies used for immunoflow cytometry included antihuman/mouse antibodies specific for CD11b-BV711, F4/80-AF647, CD206-PE, CD86-BV605, CD4-CD4-FITC IL-17-17-CY7/CY7, CD25-PE, FOXP3-AF647, CD4-BV605, CD45-PE/CY7, CD11b-BV711 and LY-6G/LY-6C-BV421 (BioLegend catalog no. 321239, RRID:AB_2860843). All data analyses were performed via GraphPad Prism 9, and the data are presented as the mean ± SEMs.

The structures appear in SMILES notation. Where a SMILES comes first, the peptide text is derived from it. The star is where a group is joined. Cbz = O=C(OCc1ccccc1)*

On NAT10 (at 36 h, time course Figure 1G), `N#Cc1ccc(-c2csc(N(CCCCC(=O)NCCCNc3cccc4c3C(=O)N(C3CCC(=O)NC3=O)C4=O)N=C3CCCC3)n2)cc1` (stereo not drawn) [NP1149] displayed an NAT10 degradation of 20%. This compound also returned an NAT10 degradation rate at NAT10 (panel TP1–32 at the same time and concentration, Figure 1E) of 23%.

For `CO/C1=C\C(C)=C\[C@@H](C)[C@@H](O)[C@@H](C)C/C(C)=C/C=C/[C@H](OC)[C@@H]([C@@H](C)[C@@H](O)[C@H](C)[C@@]2(O)C[C@@H](O)[C@H](C)[C@@H](C(C)C)O2)OC1=O` [bafilomycin A1, reference compound], the “effect of cotreatment on NP1192-mediated degradation of NAT10” value at NAT10 is recorded as “no discernible effect”.

Consider `CC(C)C[C@@H](C=O)NC(=O)[C@H](CC(C)C)NC(=O)[C@H](CC(C)C)NC(=O)OCc1ccccc1` [MG132, reference compound] (Cbz-Leu-Leu-Leu-aldehyde), for which, at NAT10, the “effect of cotreatment on NP1192-mediated degradation of NAT10” value is “significantly impeded”.

As a reminder, the IC50 is the concentration needed to halve the response being measured. `N#Cc1ccc(-c2csc(NN=C3CCCC3)n2)cc1` [Remodelin, reference compound]: the IC50 was determined as 10.7 µM with SiHa cells [1] and 497 µM in experiment [2] (Homo sapiens, Remodelin^Resist SiHa cells). The “resistance index (RI = IC50 resistant/parental SiHa)” value in experiment [2] (497.3/10.67) is 46.60. Besides, in the experiment with SiHa cells [3], the colony formation capacity result is “minimal suppressive effects”. Also, the Treg gate in experiment [4] (CD4+CD25+FOXP3+) is 0.84%. Besides, the “M2 (M2 macrophages gate)” value in experiment [4] (CD11b+F4/80+CD206+) is 21.24%. In experiment [4] (CD11b+LY-6G+), this compound yielded an MDSC gate of 58.69%. Moreover, the “CD8+ (CD8+ TILs gate)” value in experiment [4] (tumors after treatment) is 0.56%.

These data come from paper PMC12670317, “Targeted NAT10 Degradation by PROTAC NP1192 Suppresses Hypoxia-Adaptive Glycolysis and Reinvigorates CD8^+ Effector T‑Cell Function for Synergistic Cancer Immunotherapy” (ACS Central Science, 2025).
